Laboratory results taken from PubChem BioAssay (NCI).
“And” between values parts separate entries of the source, which are not always exact repeats. Identical values can stand only once.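 96-well plates; 48 h exposure; 5 concentrations. Endpoints by linear interpolation between flanking doses. Not reached: highest tested concentration assigned. GI50 = concentration required for 50% inhibition of growth. Definition used: TGI = concentration required for complete inhibition of growth.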

Key:
Assay in all cases: DTP human tumour cell line panel, 48 h
EKVX NSCLC = system: EKVX NSCLC
HCC-2998 colon = system: HCC-2998 colon
MCF7 breast = system: MCF7 breast
MOLT-4 leukemia = system: MOLT-4 leukemia
PC-3 prostate = system: PC-3 prostate
SF-295 CNS = system: SF-295 CNS
SN12C renal = system: SN12C renal
U251 CNS = system: U251 CNS
UACC-257 melanoma = system: UACC-257 melanoma
UO-31 renal = system: UO-31 renal

Row | Compound | GI50 (EKVX NSCLC) | TGI (EKVX NSCLC) | GI50 (HCC-2998 colon) | TGI (HCC-2998 colon) | GI50 (MCF7 breast) | TGI (MCF7 breast) | GI50 (MOLT-4 leukemia) | TGI (MOLT-4 leukemia) | GI50 (PC-3 prostate) | TGI (PC-3 prostate) | GI50 (SF-295 CNS) | TGI (SF-295 CNS) | GI50 (SN12C renal) | TGI (SN12C renal) | GI50 (U251 CNS) | TGI (U251 CNS) | GI50 (UACC-257 melanoma) | TGI (UACC-257 melanoma) | GI50 (UO-31 renal) | TGI (UO-31 renal)
1 | COc1ccc(S(=O)(=O)N2CCNCC2)cc1OC | > 100 µM | > 100 µM | > 100 µM | > 100 µM | > 100 µM | > 100 µM | > 100 µM | > 100 µM | > 100 µM | > 100 µM | > 100 µM | > 100 µM | > 100 µM | > 100 µM | > 100 µM | > 100 µM | > 100 µM | > 100 µM | > 100 µM | > 100 µM
2 | COc1ccc(OC)c(Cc2cnc3nc(N)nc(N)c3c2C)c1 | – | > 83.3 µM | – | 16.4 µM | – | 28.6 µM | – | 23.5 µM | – | 27.7 µM | – | 41.9 µM | – | 33.6 µM | – | > 44.1 µM | – | 47.4 µM | – | 27.7 µM
3 | [Cl][Cu][Cl] | > 10 µM | > 10 µM | > 10 µM | > 10 µM | > 10 µM | > 10 µM | > 10 µM | > 10 µM | > 10 µM | > 10 µM | 3.6 µM | > 10 µM | > 10 µM | > 10 µM | > 10 µM | > 10 µM | > 10 µM | > 10 µM | > 10 µM | > 10 µM
4 | COc1c(OC(C)C)cc2cc(O)c(C(=O)NC3Cc4ccc(c(Cl)n4)O[C@@H]4C=C5C#C/C(=C\C#CC6OC56C4OC4CC(C)(O)C(O)C(C)O4)C(OC4CC(O)C(N(C)C)C(C)O4)COC3=O)cc2c1OC (stereo partly specified) | > 36.3 µM and 37.5 µg/mL | > 36.3 µM and 37.5 µg/mL | 21 µg/mL | > 36.3 µM and 37.5 µg/mL | – | > 36.3 µM | 0.00979 µg/mL | 14.2 µg/mL | – | > 36.3 µM | 9.97 µM and 0.523 µg/mL | > 36.3 µM and 6.24 µg/mL | 17.7 µM and 0.718 µg/mL | > 36.3 µM and 9.82 µg/mL | 5.61 µM and 0.596 µg/mL | > 36.3 µM and 9.98 µg/mL | 21.9 µM and 1.08 µg/mL | > 36.3 µM and 37.5 µg/mL | > 36.3 µM and 6.42 µg/mL | > 36.3 µM and 37.5 µg/mL
5 | O=c1[nH]c2ccccc2n1C1CCN(CCCC(c2ccc(F)cc2)c2ccc(F)cc2)CC1 | 1.66 µM and 8.47 µM | 4.54 µM and 22.7 µM | 1.5 µM | 2.9 µM and 3.84 µM | 1.59 µM and 5.3 µM | 3.1 µM and 11.8 µM | 2.23 µM | 5.75 µM and 16.6 µM | 1.41 µM and 7.81 µM | 3.2 µM and 21.3 µM | 1.5 µM | 3.02 µM and 14.5 µM | 1.5 µM | 2.97 µM and 23.4 µM | 1.49 µM and 5.24 µM | 2.9 µM and 14.1 µM | 1.58 µM and 2.83 µM | 3.24 µM and 7.83 µM | 1.11 µM and 3.56 µM | 2.44 µM and 18.1 µM
6 | N#Cc1cccc(Nc2ncc(-c3ccccc3)o2)c1 | 11 µM | > 25 µM | > 23.7 µM | > 25 µM | 8.25 µM | > 25 µM | > 25 µM | > 25 µM | 15.1 µM | > 25 µM | 9.99 µM | > 25 µM | 24.2 µM | > 25 µM | 10.6 µM | > 25 µM | > 25 µM | > 25 µM | 7.84 µM | > 25 µM
7 | CCOC(=O)C(Cc1ccc(N(CCCl)CCCl)cc1)NC(=O)C(Cc1ccccc1)NC(C)=O (stereo unspecified) | – | > 0.538 µM | – | > 1 µM | – | 0.496 µM | – | 0.201 µM | – | > 0.374 µM | – | > 0.501 µM | – | > 0.296 µM | – | > 0.787 µM | – | > 0.486 µM | – | > 0.328 µM
8 | CSC1=Nc2c(c(C)c(-c3ccccc3)n2COC(CO)CO)C2=NC(=O)CN12 | > 100 µM | > 100 µM | > 100 µM | > 100 µM | > 100 µM | > 100 µM | > 100 µM | > 100 µM | > 100 µM | > 100 µM | > 100 µM | > 100 µM | > 100 µM | > 100 µM | > 100 µM | > 100 µM | > 100 µM | > 100 µM | > 100 µM | > 100 µM
9 | c1ccc(C2CCCCC2)c(OCCCCCN2CCNCC2)c1 | 4.07 µM | 19.9 µM | 1.32 µM | 2.7 µM | 1.89 µM | 4.36 µM | 1.63 µM | 5.07 µM | 3.19 µM | 18.4 µM | 2.36 µM | 6.04 µM | 2.93 µM | 18.1 µM | 1.82 µM | 4.2 µM | 2.35 µM | 4.92 µM | 5.46 µM | 21.1 µM
10 | CN1C(=NCCO)NS(=O)(=O)c2ccccc21 | – | > 100 µM | – | > 100 µM | – | > 100 µM | – | > 100 µM | – | > 100 µM | – | > 100 µM | – | > 100 µM | – | > 100 µM | – | > 100 µM | – | > 100 µM
11 | COc1ccc(C2CC(c3ccc(N(C)C)cc3)=NN2c2ccc(S(N)(=O)=O)cc2)cc1 (stereo unspecified) | 3.79 µM | > 100 µM | 2.99 µM | 12.4 µM | 3 µM | 21.7 µM | 3.91 µM | > 100 µM | 3.65 µM | > 100 µM | 3.42 µM | > 100 µM | 2.15 µM | 4.63 µM | 3.28 µM | > 100 µM | 4.48 µM | > 100 µM | 3.01 µM | 54.8 µM
12 | O=C1/C(=C/c2ccccc2O)N=C(c2ccccc2)N1c1cc(C(F)(F)F)ccc1Cl | 38.3 µM | > 100 µM | > 100 µM | > 100 µM | 3.04 µM | > 100 µM | > 100 µM | > 100 µM | 42.7 µM | > 100 µM | 23.2 µM | 52.6 µM | 53.6 µM | > 100 µM | 23.3 µM | 61.9 µM | > 100 µM | > 100 µM | 94.2 µM | > 100 µM
13 | CN(C)c1nc(N)c(C#N)c(C#N)c1C#N | – | > 10 µM | – | > 10 µM | – | > 10 µM | – | > 10 µM | – | > 10 µM | – | > 10 µM | – | > 10 µM | – | > 10 µM | – | > 10 µM | – | > 10 µM
14 | CC1(C)[C@H](O)[C@H](F)C[C@@]2(C)Oc3ccc(C(=O)Nc4ccc5c(c4)NC(=O)C54CCN(CCCCC#N)CC4)cc3C[C@H]12 | 4.01 µM and 4.25 µM | 22.1 µM | 6.76 µM and 2.71 µM | 15 µM | 0.00995 µM | 9.63 µM and 8.28 µM | 0.00568 µM | 1.09 µM and 1.63 µM | 0.0225 µM | 2.84 µM and 5.24 µM | 0.00402 µM | 0.0181 µM | 11.7 µM | 42.4 µM | 0.00414 µM | 2.02 µM | 1.57 µM | 5.02 µM | 0.456 µM and 0.558 µM | 8.32 µM and 11.4 µM
15 | Nc1nc(-c2ccc(Cl)cc2)nc2c1sc(=S)n2-c1ccccc1 | 2.75 µM | 14.7 µM | 7.52 µM | 50.2 µM | 4.29 µM | > 100 µM | > 100 µM | > 100 µM | 17.3 µM | > 100 µM | 2.72 µM | 7.62 µM | 6.34 µM | 48.1 µM | 3.5 µM | 11.9 µM | 6.58 µM | 32 µM | 1.84 µM | 4.19 µM
16 | Cc1ccc(Cl)cc1-n1c(C)nc2c(cnn2-c2ccnc3c(C(F)(F)F)cccc23)c1=O | > 100 µM | > 100 µM | > 100 µM | > 100 µM | > 100 µM | > 100 µM | > 100 µM | > 100 µM | > 100 µM | > 100 µM | > 100 µM | > 100 µM | > 100 µM | > 100 µM | > 100 µM | > 100 µM | > 100 µM | > 100 µM | > 100 µM | > 100 µM
17 | COc1cc(-c2ncn(/C=C\c3nnco3)n2)cc(C(F)(F)F)c1 | 4.66 µM | > 100 µM | 0.215 µM | 4.5 µM | 0.179 µM | > 33.4 µM | 0.0411 µM | – | 0.189 µM | > 100 µM | 0.08 µM | > 100 µM | 0.723 µM | > 83.2 µM | 0.0661 µM | 17.6 µM | 0.368 µM | > 52.5 µM | 0.247 µM | > 100 µM
18 | C=CCN(CC=C)C(=O)[C@H](CC)[C@@H]1CC[C@@H](C)[C@@H]([C@H](C)[C@@H](O)[C@@H](C)C(=O)[C@H](CC)C2O[C@]3(C=C[C@@H](O)[C@]4(CC[C@@](C)([C@H]5CC[C@](O)(CC)[C@H](C)O5)O4)O3)[C@H](C)C[C@@H]2C)O1 (stereo partly specified) | 2.33 µM | 9.07 µM | 2.41 µM | 7.26 µM | 1.95 µM | 5.14 µM | 2.33 µM | 6.01 µM | 2.31 µM | 12.4 µM | 1.87 µM | 5.23 µM | 2.2 µM | 6.42 µM | 2.78 µM | 10.1 µM | 2.35 µM | 8.25 µM | 2.16 µM | 7.46 µM
19 | COCCOCCOCCOCCOC(=O)OC[n+]1ccc(NC(=NCCCCCCOc2ccc(Cl)cc2)NC#N)cc1 | 3.93 µM | 14.9 µM | 0.564 µM | 20.5 µM | 0.873 µM | 17.4 µM | 1.95 µM | 19.5 µM | < 0.01 µM | 14.2 µM | < 0.0418 µM | 12.5 µM | < 0.01 µM | 15.7 µM | – | 18.7 µM | 7.79 µM | 21.8 µM | 11.3 µM | 24.1 µM
